# Entries after “also recorded” stand apart in the source; their conditions may differ.
# Key:
# [1] = in vivo; cited from earlier work
# [2] = mice; after oral and intravenous prodrug 2′-F-ara-ddP administration; cited from earlier work
# in vivo [3] = details: for half-life: t½; for AUC: AUC0-τ
# Source text: Animal studies. […] Animal studies were approved by the University of Georgia Animal Care and Use Committee and conducted in accordance with guidelines established by the Animal Welfare Act and the National Institutes of Health Guide for the Care and Use of Laboratory Animals. […] Animals were acclimatized to this environment for one week prior to the experiments.
# At selected time intervals, mice (three animals per each time point) were anesthetized with diethyl ether and sacrificed by exsanguination via left ventricular heart puncture. Serum was harvested from blood collected. The brain was excised, rinsed with normal saline, blotted dry and weighed.
# Analytical Methodology. […] The brain or liver tissue were homogenized in a 1:1 (g:mL) ratio with ice cold isotonic 0.05 M phosphate buffer, pH 7.4. […] Acetonitrile (600 μL) containing 0.1% acetic acid was added while vortexing to precipitate proteins. The tubes were centrifuged at 3,000 rpm for five minutes and the supernatant was transferred to a clean tube. Supernatant was evaporated to dryness under a stream of nitrogen gas at room temperature. The residual film was reconstituted in 110 μL of mobile phase and 50 μL was injected onto the HPLC.
# Chromatographic separations were performed using a Hypersil ODS column 150×4.5 mm, 5 μm particle size (Alltech Associates, Deerfield, Ill.) preceded by a guard column packed with 30-40 μm pellicular Perisorb RP-18. Mobile phase flow rate was 2 mL/min. For the analysis of FAAddP and 2′-F-ara-ddA, the mobile phase consisted of 7% (v/v) acetonitrile in 80 mM sodium acetate, pH 5.0. […] Eluants were monitored at a UV wavelength of 260 nm.
# Nucleoside standards ranging from 0.04 μg/mL to 100 μg/mL, prepared in blank PBS, serum, brain homogenate and liver homogenate were treated the same as unknown samples. Samples with nucleoside concentrations greater than 100 μg/mL were diluted with the appropriate blank matrix.
# Data analysis in vivo studies. Nucleoside concentration as a function of time data were analyzed by a non-compartmental technique. […] Relative brain exposure (re) was calculated from AUCbrain/AUCserum.
# HIV-1 = details: relative to parent compounds ddA, ddI; cited from earlier work
# [4] = In vitro metabolism study of 6-AAP and ara-A in mouse liver homogenate, serum and brain homogenate
# Experimental: (§2) All the solvents were of HPLC grade. Chromatography was performed on an Altech Hypersil ODS C18 (5 μm particle size, 4.5×150 mm, Altech Associates, Deerfield, Ill.).
# (§3) In vitro metabolism study. Female NIH Swiss mice (Harland Sprague-Dawley, Indianapolis, Ind.) were sacrificed and serum, liver and brain tissues were collected before each experiment. Serum was collected from several animals. The brain and liver were washed in normal saline at 4° C., wiped and then weighed. […] Samples and blanks of volume 400 μL were collected at 0, 5, 15, and 30 minutes and at 1, 2, 3, 4 and 5 hours.
# (§4) To measure the analyte concentrations in serum, liver or brain homogenate, 400 μL of sample was mixed with 50 μL of internal standard (AzdU, 5 μg/mL) and 0.7 mL of acetonitrile. After centrifugation, the supernatant was decanted to another tube and treated with anhydrous Na2SO4, then vortexed for one minute and centrifuged again. The organic layer was separated and evaporated under nitrogen stream at room temperature. The residue was reconstituted in mobile phase A and filtered through MPS-I micropartition system (3KD membranes (Amicon Inc., Beverly, Mass.) by centrifugation for 50 minutes at 2000 rpm to further clean-up the samples. 100 μL of filtrate was injected for analysis.
# [5] = Stability of 6-AAP at pH 2, 7 and 11 by UV spectroscopy; format: physicochemical; details: 37° C.
# Experimental: (§1) The stability of 6-AAP at pH 2, 7 and 11 and towards adenosine deaminase hydrolysis was studied by UV spectroscopy.
# Stability studies of 6AAP. A kinetic study at varying pHs (pH 2, 7 and 11 at 37.1° C.) was performed on a UV spectrophotometer to investigate the stability of 6-AAP. […] At pH 2, the compound was stable.
# in vivo [6] = details: female, NIH Swiss, mouse; for Kp: brain
# Experimental: (§5) Analysis. […] All the solvents were of HPLC grade. Chromatography was performed on an Altech Hypersil ODS C18 (5 μm particle size, 4.5×150 mm, Altech Associates, Deerfield, Ill.).
# (§6) In vivo pharmacokinetics: Female NIH Swiss mice (Harland Sprague-Dawley, Indianapolis, Ind.) weighing 24-28 g were used for the pharmacokinetic experiments.
# (§7) At least three animals each were sacrificed at 0.08, 0.025, 0.5, 0.75, 1.0, 2.0, 3.0, 4.0, 5.0 and 6.0 hours after drug administration. Blood (serum) from the heart and whole-brain samples were collected. Serum samples were treated immediately and brain samples were frozen at −20° C. until analysis. To determine the nucleoside concentrations in the serum, a know amount of serum sample, 50 μL of the internal standard (AzdU, 5 μg/mL) and 1.0 mL of acetonitrile as a protein precipitant were added to polypropylene microcentrifuge tubes (1.7 mL). Tubes were mixed and centrifuged at 9,000 rpm for 10 minutes.
# (§8) After homogenization, 1.8 mL of acetonitrile was added to tissue homogenates, samples were mixed and centrifuged at 9,000 rpm for 10 minutes. The resulting supernatant from the serum or the brain was transferred to a clean tube and dried under a stream of nitrogen gas at 22° C. The residue was reconstituted in 220 μL of mobile phase D and after centrifugation at 12,000 rpm for 40 min, 100-150 μL was injected for the HPLC analysis. […] After each assay, the column was equilibrated to initial conditions for 7 minutes.
# (§9) The area under concentration (AUC) versus time profiles from time zero to the last measured concentration were determined by the linear trapezoidal rule and the AUC from the time of the last measured concentration to infinity was determined by dividing the last determined concentration by the least-squares elimination rate constant (λZ). […] The relative tissue exposure (re) of the compounds was calculated from AUCTissue/AUCserum.
# in vitro = details: female, NIH Swiss, mouse
# Experimental: as §2, §3, §4
# adenosine deaminase = molecular target: T1, adenosine deaminase (Bos taurus, UniProt P56658); test: Adenosine deaminase study of 6-AAP; format: biochemical, calf; details: phosphate buffer pH 7.4, 25° C., up to three hours
# T1 construct: Type II crude powder from calf intestinal mucosa; purchased Sigma chemical Co., St. Louis, Mo; Type II crude powder; host or cells: calf intestinal mucosa
# T1 sequence (P56658 1-363): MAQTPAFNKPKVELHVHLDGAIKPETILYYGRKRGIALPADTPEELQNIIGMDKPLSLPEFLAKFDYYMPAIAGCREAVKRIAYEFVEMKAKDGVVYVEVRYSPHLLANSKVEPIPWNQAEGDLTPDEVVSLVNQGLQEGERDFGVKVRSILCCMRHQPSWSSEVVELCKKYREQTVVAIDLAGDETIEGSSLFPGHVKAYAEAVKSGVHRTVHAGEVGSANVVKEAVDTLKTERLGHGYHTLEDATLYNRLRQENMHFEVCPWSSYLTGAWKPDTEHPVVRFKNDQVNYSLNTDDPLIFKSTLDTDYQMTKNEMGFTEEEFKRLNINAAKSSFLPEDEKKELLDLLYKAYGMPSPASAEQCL
# Experimental: as §1
# Materials: Melting points were determined on a Mel-Temp II laboratory device and are uncorrected. The ^1H NMR spectra were recorded on a JEOL FX 90 Q FT spectrophotometer, with TMS as the internal standard; chemical shifts are reported in parts per million (δ), and the signals are quoted as s (singlet), d (doublet), t (triplet) or m (multiplet). UV spectra are recorded on a Beckman DU-650 spectrophotometer. TLC was performed on Uniplates (silica gel) purchased from Analtech Co. Elemental analysis was performed by Atlantic Microlab, Inc., Norcross, Ga. Ara-A and Adenosine deaminase (Type II crude powder from calf intestinal mucosa, 1-5 units/mg activity) was purchased from Sigma chemical Co., St. Louis, Mo. All other chemicals are of reagent grade. Methanol and acetonitrile, methyl sulfoxide were purchased from EM Science, Gibbstown, N.J.
# Adenosine deaminase studies.
# [7] = tested on: microsomal fraction of the human liver homogenate; test: Azido reduction assay
# Experimental: Briefly, incubation mixtures contained either 1.5 mg of human liver fraction protein (homogenate or supernatant fractions following centrifugation) or 1.5 mg microsomal protein, 5.0 mM MgCl2, 6.0 mM NADPH and 0.4 mg/mL of 6-AAP in 0.1 M phosphate buffer saline at pH 7.4 (final volume of 0.2 mL). The reaction was initiated by adding NADPH and conducted at 37° C. for 60 minutes under nitrogen. Reactions were terminated by heating at 100° C. for 30 seconds and the proteins were removed by centrifugation at 14,000 g for six minutes. Aliquots (100 μL) were then analyzed for nucleosides by HPLC. Control incubations were performed in the absence of protein.
# Inhibition of azido reduction assay: Assays were performed using 1.5 mg microsomal protein as described above following either a 45 second exposure to carbon monoxide or a 5 minute pre-incubation with 1 mM metyrapone prior to the addition of NADPH.
# [8] = In vivo pharmacokinetics of 6-AAP and ara-A in mice (serum and brain)
# Experimental: as §5, §6, §7, §8, §9
# [9] = mouse, in vivo, iv, 100 mg/kg
# Experimental: as §5, §6, §7, §8, §9
# [10] = in vivo; cited from earlier work; remark: listed apart in the source
# [11] = female, NIH-Swiss, mouse, in vivo, iv, 20 mg/kg
# [12] = female, NIH-Swiss, mouse, in vivo, iv, 55 mg/kg
# [13] = female, NIH-Swiss, mouse, in vivo, iv, 112 mg/kg
# [14] = female, NIH-Swiss, mouse, in vivo, po, 55 mg/kg
# [15] = 6-AAP and coformycin incubated in mouse liver homogenate
# [16] = 6-AAP incubated in mouse liver homogenate
# [17] = after 6-AAP 100 mg/kg iv, brain
# [18] = after 6-AAP 100 mg/kg iv, serum
# [19] = after 6-AAP 100 mg/kg oral, brain
# [20] = after 6-AAP 100 mg/kg oral, serum
structure (smiles),measurement,setting,value
Nc1nc2c(ncn2COCCO)c(=O)[nH]1 [Acyclovir],oral bioavailability,[1],15-20%
"O=c1[nH]cnc2c1ncn2[C@@H]1O[C@H](CO)C[C@@H]1F [2′-F-ara-ddI, 2′-fluoro-2′,3′-dideoxyinosine]",AUCbrain/AUCserum ratio,[2],approximately 36%
same,clearance,"in vivo [3]; female, NIH-Swiss, mouse, in vivo, iv",2.18 L/h/kg
same,Kp,in vivo [3]; [11],0.165
same,half-life,in vivo [3]; [11],0.41 h
same,t½,in vivo [3]; [12],0.96 h
same,half-life,in vivo [3]; [12],0.68 h
same,AUC/Dose,in vivo [3]; [13],0.025 μM · h/μmol/kg
same,AUC,in vivo [3]; [13],10.1 µM·h
same,half-life,in vivo [3]; [13],0.52 h
same,AUC/Dose,in vivo [3]; [14],0.046 μM · h/μmol/kg
same,AUC,in vivo [3]; [14],6.7 µM·h
same,half-life,in vivo [3]; [14],2.92 h
same,potency in protecting CD4+ATH8 cells from cytopathogenic effects of HIV-1,HIV-1,as potent as the parent compounds
"Nc1ncnc2c1ncn2[C@@H]1O[C@H](CO)C[C@@H]1F [2′-F-ara-ddA, 2′-fluoro-2′,3′-dideoxyadenosine]",AUC0-τ,in vivo [3]; [12],3.9 µM·h
same,AUC,in vivo [3]; [12],3 µM·h
same,AUC,in vivo [3]; [14],0.8 µM·h
same,half-life,in vivo [3]; [14],1.74 h
same,AUC/Dose,"in vivo [3]; mice, after FAAddP 55 mg/kg iv, brain",0.02 μM · h/μmol/kg
same,AUC/Dose,"in vivo [3]; mice, after FAAddP 55 mg/kg iv, serum",0.04 μM · h/μmol/kg
same,AUC/Dose,"in vivo [3]; mice, after FAAddP 55 mg/kg oral, serum",0.005 μM · h/μmol/kg
same,potency in protecting CD4+ATH8 cells from cytopathogenic effects of HIV-1,HIV-1,as potent as the parent compounds
"[N-]=[N+]=Nc1ncnc2c1ncn2[C@@H]1O[C@H](CO)[C@@H](O)[C@@H]1O [Compound 6-AAP, 9-(β-D-arabinofuranosyl)-6-azidopurine]",Kel,[4]; [15],0.12 h⁻¹
same,T1/2,[4]; [15],5.98 h
same,Kel,[4]; 6-AAP incubated in mouse brain homogenate,0.01 h⁻¹
same,Kel,[4]; [16],0.14 h⁻¹
same,T1/2,[4]; [16],4.66 h
same,Kel,"[4]; 6-AAP incubated in mouse serum, calculated from 0 to 1 h",0.25 h⁻¹
same,T1/2,"[4]; 6-AAP incubated in mouse serum, calculated from 0 to 1 h (slow initial decline)",3.73 h
same,stability at pH 2,"[5]; UV at 287.5 nm, 2.75 hours",did not show any significant change; also recorded: stable
same,stability at pH 7,"[5]; UV at 287.5 nm, 2.75 hours",did not show any significant change; also recorded: stable
same,stability at pH 11,[5]; UV spectroscopy,immediately changed its UV absorption maximum; also recorded: shifted from 287.5 nm to 222.5 nm immediately
same,Kp,"in vivo [6]; intravenous, 100 mg/kg",0.02
same,Kp,"in vivo [6]; iv, 100 mg/kg",0.02
same,Kp,"in vivo [6]; oral, 100 mg/kg",0.3
same,Kp,"in vivo [6]; po, 100 mg/kg",0.33
same,AUC,"in vivo [6]; serum, iv, 20 mg/kg",85.6 µg·h/mL
same,AUC,"in vivo [6]; serum, iv, 100 mg/kg",201 ± 17.9 µg·h/mL
same,AUC,"in vivo [6]; serum, po, 100 mg/kg",13.8 ± 1.4 µg·h/mL
same,bioavailability,"in vivo [6]; serum, po, 100 mg/kg",6.8%
same,half-life at 100 μg/mL,in vitro; brain homogenate,7.29 h
same,half-life at 100 μg/mL,in vitro; tissue homogenate,4.9 h
same,hydrolysis by adenosine deaminase,adenosine deaminase,not hydrolysed
same,azido reduction (metabolites formed),[7],converted to ara-A
same,"Maximum concentration in serum, intravenous",[8]; after 6-AAP 100 mg/kg iv,465 ± 167 µg/mL
same,"maximum concentration in the brain, intravenous",[8]; after 6-AAP 100 mg/kg iv,5.92 ± 0.7 µg/g
same,"time of maximum concentration in the brain, intravenous",[8]; after 6-AAP 100 mg/kg iv,5 min
same,AUC,[8]; [17],4.41 ± 0.37 µg·h/mL
same,t1/2,[8]; [17],0.77 h
same,AUC,[8]; [18],201.1 ± 17.9 µg·h/mL
same,t1/2,[8]; [18],0.55 h
same,"Maximum concentration in serum, oral",[8]; after 6-AAP 100 mg/kg oral,7.8 ± 2.51 µg/mL
same,"maximum concentration in the brain, oral",[8]; after 6-AAP 100 mg/kg oral,1.87 µg/g
same,"time of maximum concentration in serum, oral",[8]; after 6-AAP 100 mg/kg oral,60 min
same,"time of maximum concentration in the brain, oral",[8]; after 6-AAP 100 mg/kg oral,30 min
same,re (brain),"[8]; after 6-AAP 100 mg/kg oral, AUCTissue/AUCserum",0.30
same,AUC,[8]; [19],4.12 ± 0.37 µg·h/mL
same,t1/2,[8]; [19],1.29 h
same,AUC,[8]; [20],13.77 ± 1.40 µg·h/mL
same,t1/2,[8]; [20],0.58 h
same,fold difference in the AUC values after iv dosing of 20 and 100 mg/kg,[8]; serum,5 fold
"Nc1ncnc2c1ncn2[C@@H]1O[C@H](CO)[C@@H](O)[C@@H]1O [ara-A, 9-(β-D-arabinofuranosyl)adenine, reference compound]",T1/2,[4]; [16],1.46 h
same,T1/2,[4]; Ara-A incubated in mouse liver homogenate,0.04 h
same,"half-life of ara-A generated from 6-AAP alone, times greater than that of ara-A itself",[4]; mouse liver homogenate,36 times
same,AUC,"in vivo [6]; in vivo, iv, 100 mg/kg",3.95 ± 0.2 µg·h/mL
same,concentration at 25 minutes,"in vivo [6]; in vivo, iv, 100 mg/kg",0.33 ± 0.25 µg/mL
same,"serum level, initial (declined from)","[9]; female, NIH Swiss",18.5 ± 3.5 µg/mL
same,presence in the brain,[9],not found
same,half-life of ara-A,[10],four times longer

# Reference: patent US6949521B2, “Therapeutic azide compounds” (priority 1995, dated 2005)
